Measured values published in patent publication US9920075B2, “Triazolopyridine and triazolopyrimidine inhibitors of myeloperoxidase” (BRISTOL-MYERS SQUIBB COMPANY, priority 2014, dated 2018).
Several values for one entry are separate records, joined by “and”; a condition that tells them apart may be missing. Equal values may be shown once.

Each compound was assayed against T1, myeloperoxidase (MPO) (Homo sapiens, UniProt P05164) (assay: MPO peroxidation assay (Amplex Red assay)). Settings: MPO peroxidation (Amplex Red), ranges given; read-out: MPO peroxidation assay IC50 values (binned).
T1 sequence (P05164 49-745): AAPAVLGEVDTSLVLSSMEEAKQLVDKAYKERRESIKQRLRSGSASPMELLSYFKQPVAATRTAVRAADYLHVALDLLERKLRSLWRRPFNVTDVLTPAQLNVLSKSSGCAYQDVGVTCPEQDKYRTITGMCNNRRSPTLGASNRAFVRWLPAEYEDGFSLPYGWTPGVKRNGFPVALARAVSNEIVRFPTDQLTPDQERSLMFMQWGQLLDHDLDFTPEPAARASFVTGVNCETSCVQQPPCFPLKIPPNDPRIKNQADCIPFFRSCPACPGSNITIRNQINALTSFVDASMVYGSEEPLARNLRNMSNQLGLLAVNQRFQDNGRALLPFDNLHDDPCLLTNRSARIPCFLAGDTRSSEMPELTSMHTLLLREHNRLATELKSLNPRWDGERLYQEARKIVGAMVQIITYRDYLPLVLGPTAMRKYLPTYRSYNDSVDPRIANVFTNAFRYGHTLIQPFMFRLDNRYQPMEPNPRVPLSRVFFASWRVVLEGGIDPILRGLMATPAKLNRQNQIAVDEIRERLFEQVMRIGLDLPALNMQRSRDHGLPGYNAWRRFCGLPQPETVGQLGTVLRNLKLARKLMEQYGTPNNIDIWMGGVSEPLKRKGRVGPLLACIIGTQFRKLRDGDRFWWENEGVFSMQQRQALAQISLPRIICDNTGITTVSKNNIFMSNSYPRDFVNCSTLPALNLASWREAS
Type: biochemical
Description: MPO Peroxidation Assay (Amplex Red Assay)
MPO peroxidation activity was measured in 100 mM KPi (pH 7.4) by utilizing the non-fluorescent reagent Amplex Red (Invitrogen Cat. #A12222) which can be oxidized to the highly fluorescent resorufin. Amplex Red is oxidized by the peroxidase action of MPO to resorufin. […] Enzyme and compound were preincubated for ten minutes at room temperature.
After the ten minute preincubation, 25 μL of an Amplex Red mixture containing 200 μM Amplex Red and 10 mM H2O2 was added to the plate.
IC50 values were calculated by determining the slope of the linear portion of the kinetic trace (180-540 secs), and using that calculated slope to determine % inhibition occurring at each concentration of inhibitor using the following equation:
[formula] where A=minimal Y value (activity level of inhibited sample), B=maximal Y value (activity level of uninhibited sample), C=Log IC50, D=Hill Slope, x=concentration of inhibitor. MPO Chlorination Assay (APF Assay)

Compound	IC50
Cc1nn(C2CCC(C)C2)nc1COc1cc(N)nc2[nH]nnc12 (mixture of isomers) [Example 72, 7-((5-Methyl-2-(3-methylcyclopentyl)-2H-1,2,3-triazol-4-yl)methoxy)-3H-[1,2,3]triazolo[4,5-b]pyridin-5-amine]	≤ 60 nM
Nc1cc(OCc2ccc3c(c2)OCO3)c2nn[nH]c2n1 [Example 1, 7-(Benzo[d][1,3]dioxol-5-ylmethoxy)-3H-[1,2,3]triazolo[4,5-b]pyridin-5-amine]	≤ 60 nM
Nc1cc(OCc2cccc3c2OCCO3)c2nn[nH]c2n1 [Example 2, 7-((2,3-Dihydrobenzo[b][1,4]dioxin-5-yl)methoxy)-3H-[1,2,3]triazolo[4,5-b]pyridin-5-amine]	≤ 60 nM
Nc1cc(OCc2cccc3c2OC(F)(F)O3)c2nn[nH]c2n1 [Example 3, 7-((2,2-Difluorobenzo[d][1,3]dioxol-4-yl)methoxy)-3H-[1,2,3]triazolo[4,5-b]pyridin-5-amine]	≤ 60 nM
Nc1cc(OCc2cccc(C(F)(F)F)n2)c2nn[nH]c2n1 [Example 16, 7-((6-(Trifluoromethyl)pyridin-2-yl)methoxy)-3H-[1,2,3]triazolo[4,5-b]pyridin-5-amine]	≤ 60 nM
Cn1nc(COc2cc(N)nc3[nH]nnc23)cc1-c1ccccc1 [Example 17, 7-((1-Methyl-5-phenyl-1H-pyrazol-3-yl)methoxy)-3H-[1,2,3]triazolo[4,5-b]pyridin-5-amine]	≤ 60 nM
Cn1nc(-c2ccccc2)cc1COc1cc(N)nc2[nH]nnc12 [Example 18, 7-((1-Methyl-3-phenyl-1H-pyrazol-5-yl)methoxy)-3H-[1,2,3]triazolo[4,5-b]pyridin-5-amine]	≤ 60 nM
CCn1nc(C(F)(F)F)cc1COc1cc(N)nc2[nH]nnc12 [Example 19, 7-((1-Ethyl-3-(trifluoromethyl)-1H-pyrazol-5-yl)methoxy)-3H-[1,2,3]triazolo[4,5-b]pyridin-5-amine]	≤ 60 nM
Cn1nc(C2CC2)cc1COc1cc(N)nc2[nH]nnc12 [Example 20, 7-((3-Cyclopropyl-1-methyl-1H-pyrazol-5-yl)methoxy)-3H-[1,2,3]triazolo [4,5-b]pyridin-5-amine]	≤ 60 nM
Cc1oc(-c2cc(F)cc(F)c2)nc1COc1cc(N)nc2[nH]nnc12 [Example 27, 7-((2-(3,5-Difluorophenyl)-5-methyloxazol-4-yl)methoxy)-3H-[1,2,3]triazolo[4,5-b]pyridin-5-amine]	150 to 1000 nM
Nc1cc(OCc2cnn(-c3ccccn3)c2)c2nn[nH]c2n1 [Example 30, 7-((1-(Pyridin-2-yl)-1H-pyrazol-4-yl)methoxy)-3H-[1,2,3]triazolo[4,5-b]pyridin-5-amine]	60 to 150 nM
Nc1cc(OCc2cccc3c2nnn3Cc2ccccc2)c2nn[nH]c2n1 [Example 38, 7-((1-Benzyl-1H-benzo[d][1,2,3]triazol-4-yl)methoxy)-3H-[1,2,3]triazolo [4,5-b]pyridin-5-amine]	60 to 150 nM and 150 to 1000 nM
Nc1cc(OCc2csc(-c3ccccc3)n2)c2nn[nH]c2n1 [Example 42, 7-((2-Phenylthiazol-4-yl)methoxy)-3H-[1,2,3]triazolo[4,5-b]pyridin-5-amine]	60 to 150 nM
N#Cc1ccccc1-c1cc(COc2cc(N)nc3[nH]nnc23)on1 [Example 45, 2-(5-((5-Amino-3H-[1,2,3]triazolo[4,5-b]pyridin-7-yloxy)methyl)isoxazol-3-yl)benzonitrile]	≤ 60 nM
Nc1cc(OCc2nn(-c3cccc(Cl)c3)c3c2CCNC3=O)c2nn[nH]c2n1 [Example 51, 3-(((5-Amino-3H-[1,2,3]triazolo[4,5-b]pyridin-7-yl)oxy)methyl)-1-(3-chlorophenyl)-5,6-dihydro-1H-pyrazolo[3,4-c]pyridin-7(4H)-one]	60 to 150 nM
COCc1nn(-c2ccccc2)nc1COc1cc(N)nc2[nH]nnc12 [Example 56, 7-((5-(Methoxymethyl)-2-phenyl-2H-1,2,3-triazol-4-yl)methoxy)-3H-[1,2,3]triazolo[4,5-b]pyridin-5-amine]	60 to 150 nM

The remaining lines, values ahead:

IC50	Compound
60 to 150 nM	Nc1cc(OCc2cccc(-c3cccc(F)c3)n2)c2nn[nH]c2n1 [Example 5, 7-((6-(3-Fluorophenyl)pyridin-2-yl)methoxy)-3H-[1,2,3]triazolo[4,5-b]pyridin-5-amine]
≤ 60 nM	Nc1cc(OCc2cccc3cccnc23)c2nn[nH]c2n1 [Example 7, 7-(Quinolin-8-ylmethoxy)-3H-[1,2,3]triazolo[4,5-b]pyridin-5-amine]
≤ 60 nM	Cn1ncc2cccc(COc3cc(N)nc4[nH]nnc34)c21 [Example 8, 7-((1-Methyl-1H-indazol-7-yl)methoxy)-3H-[1,2,3]triazolo[4,5-b]pyridin-5-amine]
≤ 60 nM	Cn1ncc2ccc(COc3cc(N)nc4[nH]nnc34)cc21 [Example 9, 7-((1-Methyl-1H-indazol-6-yl)methoxy)-3H-[1,2,3]triazolo[4,5-b]pyridin-5-amine]
≤ 60 nM	Cc1nn(-c2ccc(F)cc2)nc1COc1cc(N)nc2[nH]nnc12 [Example 10, 7-((2-(4-Fluorophenyl)-5-methyl-2H-1,2,3-triazol-4-yl)methoxy)-3H-[1,2,3]triazolo[4,5-b]pyridin-5-amine]
60 to 150 nM	Nc1cc(OCc2nc(-c3ccccc3)no2)c2nn[nH]c2n1 [Example 24, 7-((3-Phenyl-1,2,4-oxadiazol-5-yl)methoxy)-3H-[1,2,3]triazolo[4,5-b]pyridin-5-amine]
150 to 1000 nM	Nc1cc(OCc2cnc(-c3ccccc3)s2)c2nn[nH]c2n1 [Example 26, 7-((2-Phenylthiazol-5-yl)methoxy)-3H-[1,2,3]triazolo[4,5-b]pyridin-5-amine]
60 to 150 nM	Nc1cc(OCc2nnc3cccc(Cl)n23)c2nn[nH]c2n1 [Example 29, 7-((5-Chloro-[1,2,4]triazolo[4,3-a]pyridin-3-yl)methoxy)-3H-[1,2,3]triazolo [4,5-b]pyridin-5-amine]
150 to 1000 nM	Cc1nc(-c2ccc(Cl)cc2)ncc1COc1cc(N)nc2[nH]nnc12 [Example 31, 7-((2-(4-Chlorophenyl)-4-methylpyrimidin-5-yl)methoxy)-3H-[1,2,3]triazolo[4,5-b]pyridin-5-amine]
150 to 1000 nM	Cn1cnc2cccc(COc3cc(N)nc4[nH]nnc34)c21 [Example 36, 7-((1-Methyl-1H-benzo[d]imidazol-7-yl)methoxy)-3H-[1,2,3]triazolo[4,5-b]pyridin-5-amine]
150 to 1000 nM	Nc1cc(OCc2cccc3c2ncn3Cc2ccccc2)c2nn[nH]c2n1 [Example 37, 7-((1-Benzyl-1H-benzo[d]imidazol-4-yl)methoxy)-3H-[1,2,3]triazolo[4,5-b]pyridin-5-amine]
≤ 60 nM	Cc1oc(-c2ccc(Cl)cc2Cl)nc1COc1cc(N)nc2[nH]nnc12 [Example 39, 7-((2-(2,4-Dichlorophenyl)-5-methyloxazol-4-yl)methoxy)-3H-[1,2,3]triazolo[4,5-b]pyridin-5-amine]
150 to 1000 nM	Nc1cc(OCc2cn3nc(Cl)ccc3n2)c2nn[nH]c2n1 [Example 40, 7-((6-Chloroimidazo[1,2-b]pyridazin-2-yl)methoxy)-3H-[1,2,3]triazolo[4,5-b]pyridin-5-amine]
≤ 60 nM	Cc1nc(-c2ccc(Cl)cc2)sc1COc1cc(N)nc2[nH]nnc12 [Example 49, 7-((2-(4-Chlorophenyl)-4-methylthiazol-5-yl)methoxy)-3H-[1,2,3]triazolo [4,5-b]pyridin-5-amine]
60 to 150 nM	Cc1nc(-c2ccccc2)oc1COc1cc(N)nc2[nH]nnc12 [Example 54, 7-((4-Methyl-2-phenyloxazol-5-yl)methoxy)-3H-[1,2,3]triazolo[4,5-b]pyridin-5-amine]

Same assay, conditions: MPO peroxidation assay IC50 values (binned), MPO peroxidation (Amplex Red), ranges given

IC50	Compound
60 to 150 nM	Nc1cc(OCc2cn(-c3ccccc3)nn2)c2nn[nH]c2n1 [Example 4, 7-((1-Phenyl-1H-1,2,3-triazol-4-yl)methoxy)-3H-[1,2,3]triazolo[4,5-b]pyridin-5-amine]
≤ 60 nM	Cc1nn(-c2ccccc2)nc1COc1cc(N)nc2[nH]nnc12 [Example 21, 7-((5-Methyl-2-phenyl-2H-1,2,3-triazol-4-yl)methoxy)-3H-[1,2,3]triazolo [4,5-b]pyridin-5-amine]
60 to 150 nM	Nc1cc(OCc2ncc(-c3ccccc3)o2)c2nn[nH]c2n1 [Example 25, 7-((5-Phenyloxazol-2-yl)methoxy)-3H-[1,2,3]triazolo[4,5-b]pyridin-5-amine]
